Results on 11 compounds are retold here after patent US11096934B2, “Compounds and methods useful for treating or preventing hematological cancers” (THE BROAD INSTITUTE, INC., priority 2015, dated 2021).

In data set [1] the test system is Lys-GFP-ER-HoxA9 cells. Put plainly: Myeloid differentiation assay in Lys-GFP-ER-HoxA9 cells (GFP / CD11b flow cytometry). The conditions noted are these: for myeloid differentiation: ER-HoxA9 cellular differentiation assay, in words; for effect of uridine supplementation of the media on differentiation: uridine rescue, also U937 and THP1. Background: In flow cytometry, cells or beads pass a laser one at a time.
Experimental: (See Example 20 for assay details.) After four days of compound treatment, cells were assessed by high-throughput flow cytometry for viability based on forward and side-scatter properties, and for differentiation as determined by the endogenous expression of GFP and cell-surface expression of CD11b (APC fluorescence, FIG. 2C).
The cell line used was ERHoxA9 myeloblast cell line. […] Removal of beta-estradiol from the culture media inactivates ERHoxA9 and the cells are freed from the HoxA9-differentiation arrest and undergo normal myeloid differentiation.
Cells were cultured in RPMI (Cellgro) supplemented with 10% fetal bovine serum (Serum Source Int'l), penicillin/streptomycin, L-glutamine (Omega Scientific), 5% conditioned media containing stem cell factor (SCF), and 0.5 μM beta-estradiol (Sigma). On day 1, 25 μL of complete media supplemented with 0.04% Pluronic F-68 (GIBCO) was added to a sterile 384 well culture plate (Greiner) followed by the addition of 0.2 μL of test compound in DMSO (Sigma). Wells contained complete media supplemented with Pluronic F-68 and the 5 μM of the estrogen receptor antagonist fulvestrant that served as a positive control for differentiation. 25 μL of cells (1.2×10^5/ml) in complete media were added and the plates were incubated (37° C./5% CO2) for 4 days. Final concentrations of components were 3,000 cells/well, 4 μM test compound, and 0.4% DMSO.
On day 5, plates were harvested as follows: 5 μL of an antibody/bead solution consisting of a 1:100 dilution of APC-conjugated anti-mouse CD11b (eBioscience, cloneM1/70) and a 1/500 dilution of polystyrene beads (Spherotech) were added to wells and the plates were incubated for 20 min prior to sampling using the HyperCyt® high throughput flow cytometry platform.
Cells were cultured in RPMI (Cellgro) supplemented with 10% fetal bovine serum (Serum Source Int'l), penicillin/streptomycin, L-glutamine (Omega Scientific), 5% conditioned media containing stem cell factor (SCF), and 0.5 μM beta-estradiol (Sigma, E2758). On day 1, 25 μL of complete media supplemented with 0.04% Pluronic F-68 (GIBCO) was added to a sterile 384 well culture plate (Greiner) followed by the addition of 0.2 μL of compound dilution arrays in DMSO. Some wells contained complete media supplemented with Pluronic F-68 and 5 μM of the estrogen receptor antagonist fulvestrant that served as a positive control for differentiation. 25 μL of cells (1.2×10^5/ml) in complete media were added and the plates were incubated (37° C./5% CO2) for 4 days. Final concentrations of components were 3,000 cells/well and 0.4% DMSO.

For data set [2], the target named is recombinant human DHODH protein (Homo sapiens, UniProt Q02127). As to the kind of experiment: In vitro DHODH enzyme inhibition assay. The conditions noted are these: in words. The data set is classed as biochemical.
Data set [3] concerns acute promyelocytic leukemia (APL). The conditions noted are these: ATRA incorporated into treatment regimens; from 20%; cited from earlier work.
A further data set concerns U937 cells. As to the kind of experiment: Differentiation (CD11b upregulation) in U937 human leukemia cell line. The data set is classed as cell-based. The method, then: (§1) The THP-1 and U937 human leukemic cell lines were used within the same procedure as in the primary assay, except using human leukemic cell lines. These are factor-independent cell lines and estrogen-independent cell lines, such that cells were grown simply in RPMI supplemented with 10% fetal bovine serum.

The subject of a further data set is THP1 cells. As to the kind of experiment: Differentiation (CD11b upregulation) in THP1 human leukemia cell line. The data set is classed as cell-based. As to the method:
as §1

In data set [4] the test system is Lys-GFP-ER-HoxA9 cells. Put plainly: Cellular metabolite analysis after DHODH inhibition in vitro. The data set is classed as cell-based, murine. The note with it: 48 hours treatment. From the text:
DHODH catalyzes the conversion of dihydroorotate (DHO) to orotate in the endogenous synthesis of uridine monophosphate (UMP, FIG. 5A).

Data set [5] relates to protein O-GlcNAc modification. Put plainly: Immunoblot of protein O-GlcNAc modification. In kind it is cell-based. From the text: FIG. 5E is an immunoblot.
DHODH and OMPD inhibitors lead to depletion of uridine and to myeloid differentiation in model systems. […] (See, Example 24.) Without intending to be bound by theory, part of the differentiation effect may be due to depletion of UDP-GlcNAc leading to decreased O-linked N-acetylglycosylation (GlcNAc) post-translational modification of proteins.
A general note: Immunoblotting shows a protein as a band on a membrane.

The next data set in a line: Bioavailability. The conditions noted are these: in vivo.
A short description of a further data set: Solubility. In kind it is physicochemical. The method, then:
Solubility was determined in phosphate buffered saline (PBS) pH 7.4 with 1% DMSO. Each compound was prepared in duplicate at 100 μM in both 100% DMSO and PBS with 1% DMSO. Compounds were allowed to equilibrate at room temperature with a 250 rpm orbital shake for 24 hours. After equilibration, samples were analyzed by UPLC-MS (Waters, Milford, Mass.) with compounds detected by SIR detection on a single quadrupole mass spectrometer. The DMSO samples were used to create a two point calibration curve to which the response in PBS was fit.

In data set [6] the test system is HoxA9-Meis1 leukemia cells. As to the kind of experiment: Syngeneic HoxA9 and Meis1-driven model of AML. An excerpt: To address the anti-leukemic and differentiation effect of DHODH inhibition in vivo, we chose a syngeneic retroviral transduction model of AML. In this model, bone marrow cells are transduced with MSCV-based retrovirus expressing both HoxA9 and Meis1 oncoproteins and introduced intravenously into recipient mice that have been pre-conditioned with a sub-lethal dose of radiation. Mice that developed acute myeloid leukemia were sacrificed and bone marrow cells were expanded in vitro in media supplemented with SCF and IL-3. To permit easy tracking in vivo, leukemic cells were transduced with lentivirus expressing the Venus fluorescent protein, and double-sorted by fluorescence activated cell sorting (FACS) to purity. These Venus-expressing cultured leukemic cells were re-transplanted into pre-conditioned secondary recipient mice, and these secondary recipients were used in all described experiments. […] Mice were treated at six dosages: (1) vehicle Q2D, (2) BRQ 5 mg/kg Q2D, (3) BRQ 10 mg/kg Q2D, (4) BRQ 25 mg/kg Q2D, (5) vehicle days 1+4 of a 7-day schedule or (6) BRQ 25 mg/kg days 1+4 of a 7-day schedule. Scheduled interim euthanasia and leukemia analyses were performed at two planned time points (FIG. 6A).

Sequence of recombinant human DHODH protein (Q02127 whole entry): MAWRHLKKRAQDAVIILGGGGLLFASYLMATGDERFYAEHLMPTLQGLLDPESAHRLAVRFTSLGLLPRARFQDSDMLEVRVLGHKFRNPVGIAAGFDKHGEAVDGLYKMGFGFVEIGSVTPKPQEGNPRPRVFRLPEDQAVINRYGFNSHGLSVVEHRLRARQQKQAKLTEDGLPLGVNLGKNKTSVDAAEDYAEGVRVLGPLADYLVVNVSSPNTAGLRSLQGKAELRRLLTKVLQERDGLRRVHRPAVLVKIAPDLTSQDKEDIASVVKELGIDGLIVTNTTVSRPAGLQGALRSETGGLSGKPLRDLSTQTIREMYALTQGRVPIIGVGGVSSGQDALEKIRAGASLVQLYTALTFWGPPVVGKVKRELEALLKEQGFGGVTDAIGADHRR

As to `O=C(CCNC(=O)c1ccc(Cl)cc1)N[C@@H]1CCCc2ccccc21` [(R)-C07], in the data set on Lys-GFP-ER-HoxA9 cells [1], the myeloid differentiation result is given as “triggered myeloid differentiation” and the “effect of uridine supplementation of the media on differentiation” value (“effect … on differentiation” for short) is listed as “abrogated the differentiation effect”. The DHODH enzyme inhibition entry in data set [2] is listed as “inhibitors of DHODH”.
Turning to `CC1=C(/C=C/C(C)=C/C=C/C(C)=C/C(=O)O)C(C)(C)CCC1` [ATRA, all-trans retinoic acid], the “overall survival of patients with APL” value in data set [3] is on record as 75%.
On to `O=C(O)c1cccnc1Nc1ccc(Cl)cc1` [Compound C03], for which the myeloid differentiation entry with Lys-GFP-ER-HoxA9 cells [1] is “triggered myeloid differentiation”. The “effect … on differentiation” value in the data set with Lys-GFP-ER-HoxA9 cells [1] is on record as “abrogated the differentiation effect”. The “differentiation (upregulation of CD11b expression)” value with U937 cells and in the data set on THP1 cells was “promoted differentiation” in each case. For the same compound, the DHODH enzyme inhibition result in data set [2] is “inhibitors of DHODH”.
Regarding `O=C(CCNC(=O)c1ccc(OC(F)(F)F)cc1)N[C@@H]1CCCc2ccccc21` [ML390], in the data set with Lys-GFP-ER-HoxA9 cells [4], the accumulation of dihydroorotate is greater than 500 fold; the “uridine and downstream metabolites” value was “depletion of uridine and other downstream metabolites”. Moreover, in the data set with Lys-GFP-ER-HoxA9 cells [1], the “effect … on differentiation” value is “abrogated the differentiation effect”. Besides, the “protein O-GlcNAc modification” value in data set [5] is “global reduction of protein O-GlcNAc modification”. Further, in data set [2], the DHODH enzyme inhibition result is “DHODH was confirmed as the target”. In addition, the bioavailability entry in “Bioavailability” is on record as “low”. In addition, in “Solubility”, the solubility entry was “low”.
Regarding `Cc1c(-c2ccc(-c3ccccc3F)cc2)nc2ccc(F)cc2c1C(=O)O` [brequinar sodium], the myeloid differentiation result in the data set with Lys-GFP-ER-HoxA9 cells [1] is given as “active”. Moreover, the DHODH enzyme inhibition result in [2] is “active”.
On to `Nc1ccn([C@@H]2O[C@H](CO)[C@@H](O)[C@@H]2O)c(=O)n1` [cytarabine], for which, in the data set on Lys-GFP-ER-HoxA9 cells [1], the myeloid differentiation entry is recorded as “cytotoxicity without differentiation”.
Regarding `COc1cccc2c1C(=O)c1c(O)c3c(c(O)c1C2=O)C[C@@](O)(C(C)=O)C[C@@H]3O[C@H]1C[C@H](N)[C@H](O)[C@H](C)O1` [daunorubicin], in the data set with Lys-GFP-ER-HoxA9 cells [1], the myeloid differentiation result is recorded as “cytotoxicity without differentiation”.
Consider `Cc1oncc1C(=O)Nc1ccc(C(F)(F)F)cc1` [leflunomide, 5-methyl-N-[4-(trifluoromethyl)phenyl]-isoxazole-4-carboxamide], for which, in the data set on Lys-GFP-ER-HoxA9 cells [1], the myeloid differentiation result is “active”. Further, in data set [6] (25 mg/kg daily), the leukemic burden entry is listed as “did not result in a reduction in leukemic burden”. Moreover, the “expression of the differentiation marker CD11b” value in data set [6] (25 mg/kg daily (highest dosage)) was “very mild increase”.
In the case of `CN(Cc1cnc2nc(N)nc(N)c2n1)c1ccc(C(=O)N[C@@H](CCC(=O)O)C(=O)O)cc1` [methotrexate], the myeloid differentiation result in the data set on Lys-GFP-ER-HoxA9 cells [1] is reported as “cytotoxicity without differentiation”.
For the compound `NC(=O)c1[nH]nc([C@@H]2O[C@H](CO)[C@@H](O)[C@H]2O)c1O` [pyrazofurin], in the data set on Lys-GFP-ER-HoxA9 cells [1], the myeloid differentiation result is given as “phenocopied the differentiation effect of DHODH inhibition” and the “effect … on differentiation” value is on record as “abrogated the differentiation effect”.
For the compound `C/C(O)=C(\C#N)C(=O)Nc1ccc(C(F)(F)F)cc1` [teriflunomide, (2Z)-2-cyano-3-hydroxy-N-[4-(trifluoromethyl)phenyl]but-2-enamide], the myeloid differentiation result with Lys-GFP-ER-HoxA9 cells [1] is listed as “active”. In addition, the DHODH enzyme inhibition entry in [2] is reported as “active”.
